The values that follow are results of earlier work, collected in US12448518B2, “Phthalocyanine dye compounds, conjugates and methods of use thereof” (Rakuten Medical, Inc., priority 2020, dated 2025).

Molecules are shown by their SMILES.

The conditions of this series: reference in N,N-dimethylformamide; cited from earlier work.

For `[Zn+2].c1ccc2c(c1)-c1nc-2nc2[n-]c(nc3nc([n-]c4nc(n1)-c1ccccc1-4)-c1ccccc1-3)c1ccccc21` [ZnPc], the ΦΔ of reference is recorded as 0.67.
